Key:
[1] = system: BAT mitochondria; assay: test (b): GDP binding in BAT mitochondria of cold adapted rats, relative to isoprenaline; format: in vivo; settings: dose necessary to produce 50% of the isoprenaline (1 mg/kg) effect on GDP binding
[2] = test (d): metabolic rate (oxygen consumption) in cold adapted rats; format: in vivo; settings: at 1mgkg⁻¹ p.o.
[3] = test (c): heart rate in rats adapted to a thermoneutral environment (D500 dose and selectivity index); settings: ratio of D₅₀₀ to ED₅₀ in test (b)

| Compound | ED₅₀ [1] [mgkg⁻¹] | metabolic rate [2] [ml O₂ min ⁻¹Kg^.75] | SI ([3]; oral) | SI ([3]; route not stated) |
| --- | --- | --- | --- | --- |
| CCCC(=O)Cc1ccc(OCCNCC(O)COc2ccccc2)cc1 (stereo not shown) [Example 5, 1-[4-(2-(2-hydroxy-3-phenoxypropylamino)ethoxy)phenyl]pentan-2-one] | 0.23 | 6.6 | > 100 |  |
| CC(C)NCC(O)c1ccc(O)c(O)c1 (stereo not shown) [isoprenaline, reference compound] |  |  |  | 0.06 |
